Experimental data: patent US20120315308A1, “METHODS AND DEVICES FOR CONTROLLING PARTICLE SIZE AND PARTICLE SIZE DISTRIBUTION” (priority 2010, published 2012)
Where “and” joins values, the source holds several entries; their conditions need not be identical. Equal values may be shown once. Read-outs that look alike come from different tables or passages of the source.

Procedure: A submicron dispersion of naproxen was prepared using the enhanced initial dispersion followed by a secondary high shear mixing process. The following equipment was used for the experiment:
(1) An Ivek Digispense 3009 controller with an AP motor/base assembly and a AA pump body.
(2) A Micronoson Ultrasonic Cell Distruptor, XL 100 watt ultrasonic controller and a Misonix 22.5 kHz ultrasonic transducer horn with a coaxillal center feed.
(3) Microfluidizer—Microfluidics M-110EH-25 high shear processor with a 75 micron F-20Y interaction chamber.
(4) Horiba LA-950 Laser Diffraction Particle Size Analyzer.
The Ivek Digispense pump speed was calibrated to 20 mL/min.
The end of the ultrasonic horn, also referred to as an ultrasonic probe, was suspended in air, the power to the Ivek pump and the ultrasonic probe was turned on. Ultrasonic power was set to 20 watts. The height of the ultrasonic probe dispense tubing was adjusted until the feed liquid was dispersed as small droplets, thereby creating a fine spray. The tubing was fixed at this height, as above and below this height, dispensed liquid simply drips from the probe.
The tip of the ultrasonic transducer horn was secured just above the check valve in the feed reservoir. The antisolvent was a 0.5% Triton X-100 in dionized water, and 190 mL of the antisolvent was added to the inlet reservoir of the Microfluidizer. Naproxen has a tendency to agglomerate, therefore, nonionic Triton X-100 surfactant was used as the antisolvent.
DMSO was used as the solvent and it contained 13.75 g naproxen per 100 mL solvent. An ice bath was used to chill the sample to avoid over heating with multiple passes.
The microfluidizer pressure was set to 24,000 psi, using the antisolvent. […] The outlet from the cooling coil of the microfluidizer was placed in the inlet reservoir to allow for recycling of the process. The Ivek Pump was set for 20 mL/min.
With the Microfluidizer running at 24,000 psi in a recirculation mode the Pump and Ulrasonic Probe were simutaneously turned on for 30 seconds and then immediately turned off. A single pass sample was collected for particle size analyzsis. This sample contained 1.375 grams of naproxen in the mixed solution of DMSO & 0.5% triton X-100 DI water. The Microfluidizer continued to run for an additional 150 seconds for a total of 180 seconds. After six passes, a sample was collected to evaulate particle size.
The graph presented in FIG. 3 is a plot of naproxen particle diameter (x axis) vs. frequency of occurrence of the particle diameter (y axis). Table 6 provides the mean and median particle size for each run.

[1] = no ultrasonic step, 1 pass through Microfluidizer at 24,000 psi
[2] = no ultrasonic step, 6 passes through Microfluidizer at 24,000 psi
[3] = with ultrasonic initial mixing, 1 pass through Microfluidizer at 24,000 psi, DMSO / 0.5% Triton X-100 in water
[4] = with ultrasonic initial mixing, 6 passes through Microfluidizer at 24,000 psi, DMSO / 0.5% Triton X-100 in water

What does the source list for `COc1ccc2cc([C@H](C)C(=O)O)ccc2c1` [naproxen]?
Mean Particle Size [1]: 4.65 μm and 8.199 μm; Median particle size [1]: 4.784 μm and 8.324 μm; Mean Particle Size [2]: 2.4845 μm and 2.47 μm; Median particle size [2]: 1.214 μm and 1.696 μm; Mean Particle Size [3]: 1.021 μm and 1.257 μm; Median particle size [3]: 0.3267 μm and 0.6459 μm; Mean Particle Size [4]: 0.6051 μm and 0.606 μm; Median particle size [4]: 0.5067 μm and 0.4602 μm; median naproxen particle size (diameter) (with ultrasonic initial mixing, regardless of how many passes were employed): less than 1 μm
